Experimental data as given in US11397186B2, “Methods for covalently binding a cell surface protein and a ligand” (UNIVERSITEIT GENT, priority 2016, dated 2022).
Non-standard residues stand in square brackets, D forms with d. Residues, ends and D or L forms follow the SMILES beside them. Ala(2-furyl) = N[C@@H](Cc1ccco1)C(=O)O

Biological target: T1, μ-opioid receptor (MOR) (Homo sapiens, UniProt P35372)
T1 construct: expressed in transfected cells; host or cells: CHO-hOR cells (CHO cells expressing the human opioid receptor)
Test: Opioid receptor radio-ligand binding assay (CHO-hOR cells)
Conditions: based on Table 1
Method: Next, the synthesised peptides were subjected to biological activity testing, to know whether they still bind to the opioid receptor. If so, it is tested to which opioid receptor subtype they bind. It is also investigated whether the opioid peptides behave as agonist or antagonist. The following assays are performed: radio-ligand binding assay, ^35S GTP binding assay, and tissue experiments, including guinea pig ileum (GPI) and mouse vas deferens (MVD) tests.

T1 sequence (P35372 whole entry): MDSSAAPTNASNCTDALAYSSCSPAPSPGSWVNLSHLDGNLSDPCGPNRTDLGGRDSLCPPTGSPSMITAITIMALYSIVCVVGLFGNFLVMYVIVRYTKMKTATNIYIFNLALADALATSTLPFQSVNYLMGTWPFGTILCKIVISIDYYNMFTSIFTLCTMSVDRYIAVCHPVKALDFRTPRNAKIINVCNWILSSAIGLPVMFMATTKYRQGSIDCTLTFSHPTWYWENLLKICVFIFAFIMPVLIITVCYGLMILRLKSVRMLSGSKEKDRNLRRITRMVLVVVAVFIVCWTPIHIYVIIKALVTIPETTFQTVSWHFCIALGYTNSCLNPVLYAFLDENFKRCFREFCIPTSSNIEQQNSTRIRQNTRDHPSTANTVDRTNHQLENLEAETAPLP

## N=C(N)NCCC[C@@H](NC(=O)[C@@H](N)Cc1ccc(O)cc1)C(=O)N[C@@H](Cc1ccco1)C(=O)N[C@@H](Cc1ccccc1)C(N)=O [FUA3] (H-Y[dR][Ala(2-furyl)]F-NH2; N-terminus and C-terminus assumed)
  binding to the opioid receptor, assessment in words: acceptable
